Values quoted from earlier work, collected in patent US20220370529A1, “CANNABIS COMPOSITIONS AND RELATED METHODS” (Access Business Group International LLC, priority 2021, published 2022).

How the values were obtained:
[1] = tested on: human keratinocytes (HaCaT cells); conditions: of 26 genes upregulated by TNF-α treatment
[2] = tested on: human dermal fibroblast (HDF); conditions: HDF cells
[3] = with rapid metabolism or redistribution

Structure (SMILES)	partition coefficient (log P)	inflammatory related genes downregulated [1] [genes]	inhibitory effects on genes playing a role in inflammation and matrix remodeling, including IL-6 and MMP-9 ([2]; TNF-α treatment)	wound healing genes downregulated ([2]; of 16 genes upregulated by TNF-α treatment) [genes]	human pulmonary uptake [3] [%]
C=C(C)[C@@H]1CCC(C)=C[C@H]1c1c(O)cc(CCCCC)cc1O [CBD, cannabidiol]	~6.3	15	did not exhibit any inhibitory effects	11	
CC1=CC[C@H]2C[C@@H]1C2(C)C [α-Pinene, α-pinene]					~60
